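Five compound concentrations were applied to cells in 96-well plates for 48 hours; endpoints were derived by simple linear interpolation of the resulting dose-response curve. Abbreviation: GI50, concentration required for 50% inhibition of growth. TGI marks complete inhibition of growth.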 Where a SMILES comes first, the peptide text is derived from it. Bridges are numbered along the chain shown (N, C = ends). Roman numbers before positions name the chains, in order. [ ]: non-standard residue; d: D form. The star is where a group is joined. Quinoxaline2carbonyl = O=C(c1cnc2ccccc2n1)*; NMeV = CN[CH](C(=O)O)C(C)C; NMeC = CN[CH](CS)C(=O)O
Assays:
Experiment in all cases: growth of human tumour cells (NCI), 48 h
CCRF-CEM leukemia = tested on: CCRF-CEM leukemia
HCT-15 colon = tested on: HCT-15 colon
K-562 leukemia = tested on: K-562 leukemia
M14 melanoma = tested on: M14 melanoma
MALME-3M melanoma = tested on: MALME-3M melanoma
MOLT-4 leukemia = tested on: MOLT-4 leukemia
PC-3 prostate = tested on: PC-3 prostate
SW-620 colon = tested on: SW-620 colon
UACC-257 melanoma = tested on: UACC-257 melanoma
UO-31 renal = tested on: UO-31 renal

SMILES | TGI (CCRF-CEM leukemia) [µM] | TGI (HCT-15 colon) [µM] | TGI (K-562 leukemia) [µM] | TGI (M14 melanoma) [µM] | TGI (MALME-3M melanoma) [µM] | TGI (MOLT-4 leukemia) [µM] | TGI (PC-3 prostate) [µM] | TGI (SW-620 colon) [µM] | TGI (UACC-257 melanoma) [µM] | TGI (UO-31 renal) [µM] | GI50 (CCRF-CEM leukemia) [µM] | GI50 (HCT-15 colon) [µM] | GI50 (K-562 leukemia) [µM] | GI50 (M14 melanoma) [µM] | GI50 (MALME-3M melanoma) [µM] | GI50 (MOLT-4 leukemia) [µM] | GI50 (PC-3 prostate) [µM] | GI50 (SW-620 colon) [µM] | GI50 (UACC-257 melanoma) [µM] | GI50 (UO-31 renal) [µM]
CN(CC(N)=O)C(=O)N(CCCl)N=O | > 100 | > 100 | > 100 | > 100 | > 100 | > 100 | > 100 | > 100 | > 100 | > 100 |  |  |  |  |  |  |  |  |  | 
CN1CCN(Cc2ccc(NC(=O)c3[nH]ncc3Nc3ncnc4sc5c(c34)CCCC5)cc2)CC1 | 0.823 | 1.28 | 1.14 | 1.64 | 2.82 | 0.503 | 1.33 | 1.05 | 3.29 | 1.75 | 0.179 | 0.197 | 0.198 | 0.324 | 1.35 | 0.108 | 0.198 | 0.194 | 1.21 | 0.356
CC(C)=CCC/C(C)=C/CC/C(C)=C/CC/C=C(\C)CC/C=C(\C)CCC(=O)Nc1ccn(C2OC(CO)C(O)C2(F)F)c(=O)n1 (stereo not given) | 0.525 | 28 | 24.9 | 1.2 | 6.71 | 1.5 | 20.5 | 21.4 | 8.22 | 14.7 | 0.0639 | 0.691 | 0.989 | 0.0519 | 0.438 | 0.0743 | 1.19 | 0.48 | 0.252 | 0.0501
BrCc1ccc(CBr)cc1 |  | > 75.2 | > 20.6 | > 47.3 | 12.5 |  |  | 17.6 | 38.9 | > 63.2 | 2.07 | 5.44 | 7.1 | 11.3 | 4.56 | 2.11 | 5.3 | 5.1 | 14 | 7.58
COc1ccc(OC)c(C2SCC(=O)N2NC(=O)C(O)c2ccccc2)c1 (stereo not given) | > 100 | > 100 | > 100 | > 100 | > 100 | > 100 | > 100 | > 100 | > 100 | > 100 | > 100 | > 100 | > 100 | > 100 | > 100 | > 100 | > 100 | > 100 | > 100 | > 100
CC(C)(C)c1ccc(C(=O)Nc2sc3c(c2C(N)=O)CCC(=O)C3)cc1 | 3.37 | 2.38 |  | 1.57 | 2.66 | 3.45 | 1.48 | 1.28 | 4.19 | 1.46 | 0.215 | 0.408 | 0.127 | 0.413 | 0.906 | 0.705 | 0.188 | 0.187 | 1.72 | 0.425
CCn1c2ccccc2c2cc(/C=C(/C#N)C(N)=O)ccc21 | > 100 | > 100 | > 100 | > 83.6 | > 100 | > 100 | > 100 | > 100 | 15.8 | > 29.6 | 13.2 | 14.8 | 4.49 | 13.4 | > 75.2 | 6.66 | 21.6 | 4.86 | 4.18 | 11.7
CCN1C(=O)N(CC)C2C1NN=c1s/c(=C3\C(=O)N(CCc4ccccc4)c4ccccc43)c(=O)n12 (stereo not given) | > 100 | > 34.2 | > 100 | 12.5 | 20 | > 100 | > 21.8 | > 100 | > 100 | > 35.2 | 2.58 | 0.351 | 0.353 | 0.478 | 1.04 | 1.49 | 0.415 | 0.492 | 3.77 | 1.03
Nc1ccccc1SCc1csc(-c2ccc(Cl)cc2)n1 | 67.1 | > 82.1 | 63.9 | 41.7 | 47 | 25 | > 71.5 | > 100 | > 77.7 | 46.6 |  |  |  |  |  |  |  |  |  | 
CC1(C)OC2C(=O)C=C(COCc3ccccc3)C2O1 (stereo not given) | > 100 | > 100 | > 100 | 92.9 | 45 | > 100 | > 100 | 52.2 | > 100 | 50.1 |  |  |  |  |  |  |  |  |  | 
CCN(Cc1ccc(Cl)s1)c1ccc(CO)c(Cl)c1 | > 81.1 | > 50.6 | > 53.9 | 34.3 | 28.1 | > 75.1 | 49.4 | > 55.2 | 0.298 | 20 | 13.1 | 4.2 | 0.575 | 10.3 | 10 | 21.5 | 12.7 | 0.506 | 0.0898 | 1.12
CN(C)CC1CCCC1=O (stereo not given) | 0.533 | 2.56 | 0.549 | 3.46 | 2.57 | 0.875 | 22.6 | 0.517 | 3.5 | 22.9 |  |  |  |  |  |  |  |  |  | 
C[CH2][Pb]([CH2]C)([CH2]C)[O]C(=O)c1ccc2ccccc2n1 | > 10 | > 10 | > 10 | > 10 | > 10 | > 10 | > 10 | > 10 | > 10 | > 10 | > 10 | > 10 | > 10 | > 10 | > 10 | > 10 | > 10 | > 10 | > 10 | > 10
O=C1NC(=O)C(c2cccc(Cl)c2)=C1Nc1ccc(O)c(Cl)c1 | > 25 | > 25 | > 25 | > 25 | > 25 | > 25 | > 25 | > 25 | > 25 | > 25 | 11 | 8.66 | 11.7 | 12.1 | 15.9 | 15 | 12.2 | 8.73 | > 25 | 7.93
COc1cc(/C=C/[N+](=O)[O-])cc(Br)c1OC | 44.5 | 8.98 | > 100 | 3.74 | 8.13 | 53.6 | 13.2 | 3.37 | 10.4 | 3.49 | 6.65 | 2.68 | 2.21 | 1.78 | 2.61 | 3.52 | 3.5 | 1.57 | 2.88 | 1.86
CN(CCCCCl)P(=O)(OCCS(=O)(=O)CC(NC(=O)CCC(N)C(=O)O)C(=O)NC(C(=O)O)c1ccccc1)OCC1OC(n2cc(F)c(=O)[nH]c2=O)CC1O (stereo not given) | 33.1 | 46.6 | > 100 | 2.85 | > 72.2 | > 95.5 | > 36.1 | > 64.4 | > 100 | > 81.2 | < 0.0376 | 1.32 | 1.81 | 0.0647 | 8.98 | 0.274 | 0.882 | 1.28 | 4.58 | 0.0973
CC1(C)N=C(N)N=C(N)N1c1ccc(CCCCc2ccc(S(=O)(=O)F)cc2)c(Cl)c1 | 17.4 | > 100 | 17.9 | 17.9 | 35.9 | 21.4 | 15.9 | 14.7 | 19.1 | > 100 | 0.107 | 0.593 | 0.0628 | 0.334 | 12 | 0.518 | 0.0493 | 0.0527 | 0.929 | 9.59
CC1NC(=O)C(NC(=O)c2cnc3ccccc3n2)COC(=O)C(C(C)C)N(C)C(=O)C2CSSCC(C(=O)N(C)C(C(C)C)C(=O)OCC(NC(=O)c3cnc4ccccc4n3)C(=O)NC(C)C(=O)N2C)N(C)C1=O (stereo not given) (I: Quinoxaline2carbonyl-SA[NMeC][NMeV] / II: Quinoxaline2carbonyl-SA[NMeC][NMeV]; ester I:1-II:C, I:C-II:1; disulfide I:3-II:3; configuration not given here) | 0.229 | 0.365 | > 51.5 | < 0.01 | < 0.01 | > 4.64 | 1.68 | 2.98 | 0.0162 |  |  |  |  |  |  |  |  |  |  | 
Nc1ccc(-c2nc3ccccc3[nH]2)c2ccccc12 | > 43.2 | 20.8 | > 100 | 17.6 | 21.6 | > 100 | > 100 | > 100 | > 100 | > 82.8 | 2.03 | 6.35 | 2.54 | 2.73 | 1.36 | 3.44 | 6.49 | 1.4 | 6.46 | 5.32
COc1ccc2c(c1)OC1=C(C(=O)OC1)C2c1cc(OC)c2c(c1)OCO2 (stereo not given) | > 100 | > 100 | > 100 | 0.0552 | > 100 | > 100 | > 100 | > 100 | > 100 | > 100 | 0.0378 | 0.0464 | 0.033 | 0.0223 | > 100 | 0.0737 | 0.0403 | 0.0407 | > 46.1 | 0.689

From PubChem BioAssay (NCI)
